Laboratory results from patent US10391268B2, “Device and method of delivering particles in the upper respiratory tract” (SERVICES MEDICAUX ARNOLD ET JOAN ZIDULKA INC., priority 2016, dated 2019).

System: patient suffering from post-nasal drip and upper laryngeal syndrome
Assay: two rounds of testing of orally administered, nasally exhaled aerosolized ciclesonide in a patient
Assay type: in vivo
Settings: one patient; two rounds with an interval of two weeks; two sprays of 200 micrograms ciclesonide into FIG. 3 device, four to six oral inhalations each followed by nasal exhalation, morning and evening for two weeks
Source text: The Applicant has performed two rounds of testing on a patient suffering from post-nasal drip and upper laryngeal syndrome with an interval of two weeks between the rounds, each round consisting in administering a therapeutically effective dose of ciclesonide using the method of the present invention. […] In some embodiments, the therapeutically effective dose of ciclesonide for the treatment of upper airway cough syndrome is from 25 to 800 micrograms. Use of ciclesonide for the treatment of upper airway cough syndrome provides the advantage of avoiding fungal infections typically associated with administration of corticosteroid in the posterior nasal region, pharynx and the larynx.
In conducting the rounds of testing, the Applicant used the embodiment of the oral delivery device of the present invention shown in FIG. 3. […] It should be noted that in some embodiments, the effective volume is greater or smaller than 375 milliliters. In operation, the patient released two sprays of aerosolized ciclesonide into the oral delivery device, each one of the sprays containing 200 micrograms of ciclesonide, and performed four to six oral inhalations, each one of the inhalations being followed by a nasal exhalation into the ambient atmosphere. Each one of the inhalations drew ambient air into the oral delivery device to sweep in an additional amount of aerosolized ciclesonide. […]

CC(C)C(=O)OCC(=O)[C@@]12O[C@H](C3CCCCC3)O[C@@H]1C[C@H]1[C@@H]3CCC4=CC(=O)C=C[C@]4(C)[C@H]3[C@@H](O)C[C@@]12C [ciclesonide]
patient-reported symptoms typical of upper airway cough syndrome following each round: significant alleviation of the symptoms
